Reference: patent publication US7928140B2, “Benzothiazole PI3 kinase modulators for cancer treatment” (Amgen Inc., priority 2007, dated 2011)

Assays:
PI3K α = target: T1, PI3K α (Homo sapiens, UniProt P42336); experiment: In vitro PI3 kinase enzyme assay (alpha), ATP loss, bioluminescence; assay type: biochemical; conditions: read-out: PI3Kα ATP loss IC50;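 further: purified p110α/p85 heterodimer acting on PtdIns(4,5)P2 at room temperature, remaining ATP read by luminescence, inhibition scaled between compound-free wells with and without enzyme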
T1 construct: Full length p110 subunits of PI3K α, β and δ, N-terminally labeled with polyHis tag; polyHis (N); made in house; host or cells: Sf9 insect cells (baculovirus)
T1 sequence (P42336 whole entry, species assumed): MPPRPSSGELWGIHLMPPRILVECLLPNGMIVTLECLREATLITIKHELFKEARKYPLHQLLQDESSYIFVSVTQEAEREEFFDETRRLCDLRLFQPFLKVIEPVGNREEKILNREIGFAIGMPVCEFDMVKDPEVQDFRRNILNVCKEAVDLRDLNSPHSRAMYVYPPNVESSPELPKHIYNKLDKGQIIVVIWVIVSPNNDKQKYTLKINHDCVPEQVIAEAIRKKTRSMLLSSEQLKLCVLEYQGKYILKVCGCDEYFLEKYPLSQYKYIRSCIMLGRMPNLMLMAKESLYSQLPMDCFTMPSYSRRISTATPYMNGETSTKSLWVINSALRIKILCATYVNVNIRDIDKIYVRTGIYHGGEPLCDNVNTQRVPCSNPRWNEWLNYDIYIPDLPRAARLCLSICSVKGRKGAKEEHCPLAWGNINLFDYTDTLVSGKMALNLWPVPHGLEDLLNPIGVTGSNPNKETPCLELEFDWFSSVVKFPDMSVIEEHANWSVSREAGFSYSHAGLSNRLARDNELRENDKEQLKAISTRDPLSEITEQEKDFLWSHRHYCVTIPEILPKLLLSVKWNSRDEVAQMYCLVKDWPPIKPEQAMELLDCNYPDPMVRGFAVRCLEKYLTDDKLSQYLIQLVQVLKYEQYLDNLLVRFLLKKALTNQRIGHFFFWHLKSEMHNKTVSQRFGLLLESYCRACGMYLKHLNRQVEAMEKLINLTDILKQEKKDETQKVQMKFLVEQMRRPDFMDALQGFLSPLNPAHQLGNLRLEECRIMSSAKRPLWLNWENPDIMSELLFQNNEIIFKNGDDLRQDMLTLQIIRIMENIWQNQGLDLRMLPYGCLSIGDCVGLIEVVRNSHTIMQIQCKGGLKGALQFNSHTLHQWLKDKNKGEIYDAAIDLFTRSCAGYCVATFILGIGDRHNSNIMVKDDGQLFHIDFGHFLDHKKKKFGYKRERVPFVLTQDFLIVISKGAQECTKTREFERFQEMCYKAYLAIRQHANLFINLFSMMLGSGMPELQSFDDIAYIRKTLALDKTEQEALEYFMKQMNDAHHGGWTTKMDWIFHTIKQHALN
T1 sequence (P27986 whole entry partner, species assumed): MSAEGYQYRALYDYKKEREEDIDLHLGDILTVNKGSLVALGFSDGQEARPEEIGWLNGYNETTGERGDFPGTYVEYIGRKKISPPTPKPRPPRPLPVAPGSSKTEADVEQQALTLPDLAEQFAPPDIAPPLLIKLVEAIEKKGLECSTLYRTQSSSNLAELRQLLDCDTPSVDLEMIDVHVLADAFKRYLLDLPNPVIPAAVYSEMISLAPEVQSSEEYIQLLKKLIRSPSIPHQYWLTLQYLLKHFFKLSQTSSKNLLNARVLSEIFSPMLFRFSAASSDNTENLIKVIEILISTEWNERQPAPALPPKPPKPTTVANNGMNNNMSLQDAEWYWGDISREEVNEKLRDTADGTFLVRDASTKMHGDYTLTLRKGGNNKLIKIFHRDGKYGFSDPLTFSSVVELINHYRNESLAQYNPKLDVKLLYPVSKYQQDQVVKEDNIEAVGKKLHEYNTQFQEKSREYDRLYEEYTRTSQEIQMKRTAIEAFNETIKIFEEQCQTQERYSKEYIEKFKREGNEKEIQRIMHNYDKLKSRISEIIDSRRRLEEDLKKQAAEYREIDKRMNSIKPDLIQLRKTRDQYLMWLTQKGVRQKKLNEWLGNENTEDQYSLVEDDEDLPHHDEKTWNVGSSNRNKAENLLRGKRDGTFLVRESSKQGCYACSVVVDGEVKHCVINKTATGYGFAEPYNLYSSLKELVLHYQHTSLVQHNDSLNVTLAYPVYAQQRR

PI3K β = target: T2, PI3K β (Homo sapiens, UniProt P42338); experiment: In vitro PI3 kinase enzyme assay (beta), ATP loss, bioluminescence; assay type: biochemical; conditions: read-out: PI3Kβ ATP loss IC50;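 further: purified p110β/p85 heterodimer with PtdIns(4,5)P2 as acceptor, incubated at room temperature, leftover ATP read by luminescence, inhibition scaled to compound-free wells with and without enzyme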
T2 construct: Full length p110 subunits of PI3K α, β and δ, N-terminally labeled with polyHis tag; polyHis (N); made in house; host or cells: Sf9 insect cells (baculovirus)
T2 sequence (P42338 whole entry): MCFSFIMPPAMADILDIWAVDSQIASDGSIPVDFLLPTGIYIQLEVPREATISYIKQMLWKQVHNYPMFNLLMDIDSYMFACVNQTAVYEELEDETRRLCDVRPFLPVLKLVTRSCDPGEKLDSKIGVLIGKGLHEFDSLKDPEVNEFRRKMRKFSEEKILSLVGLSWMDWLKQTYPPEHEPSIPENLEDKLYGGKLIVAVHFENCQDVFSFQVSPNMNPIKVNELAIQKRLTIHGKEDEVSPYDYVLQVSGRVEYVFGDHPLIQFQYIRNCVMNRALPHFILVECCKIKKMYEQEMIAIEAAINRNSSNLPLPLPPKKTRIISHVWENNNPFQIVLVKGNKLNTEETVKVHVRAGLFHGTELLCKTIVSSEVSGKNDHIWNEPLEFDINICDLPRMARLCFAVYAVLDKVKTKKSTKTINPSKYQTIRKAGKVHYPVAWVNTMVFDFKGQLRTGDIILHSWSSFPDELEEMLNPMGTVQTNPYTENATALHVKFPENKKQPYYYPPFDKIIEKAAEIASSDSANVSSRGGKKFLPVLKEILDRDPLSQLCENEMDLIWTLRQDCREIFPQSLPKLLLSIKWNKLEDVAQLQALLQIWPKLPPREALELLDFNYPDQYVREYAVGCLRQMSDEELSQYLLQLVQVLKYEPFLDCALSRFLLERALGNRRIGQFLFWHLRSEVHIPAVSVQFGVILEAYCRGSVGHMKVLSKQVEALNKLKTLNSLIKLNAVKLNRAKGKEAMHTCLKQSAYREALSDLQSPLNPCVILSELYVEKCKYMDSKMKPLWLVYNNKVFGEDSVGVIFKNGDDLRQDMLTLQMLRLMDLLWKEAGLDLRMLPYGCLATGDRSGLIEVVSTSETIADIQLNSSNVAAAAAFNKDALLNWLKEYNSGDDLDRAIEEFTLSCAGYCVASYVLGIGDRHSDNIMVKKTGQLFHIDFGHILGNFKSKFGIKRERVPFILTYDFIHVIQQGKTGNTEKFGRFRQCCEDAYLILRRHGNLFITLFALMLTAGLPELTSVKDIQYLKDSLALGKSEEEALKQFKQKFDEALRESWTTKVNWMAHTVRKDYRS
T2 sequence (P27986 whole entry partner): as the sequence (P27986 whole entry partner, species assumed) above

CC(=O)Nc1nc2ccc(-c3cnccc3OC(F)F)cc2s1 [Example 248, N-(6-(4-(difluoromethoxy)pyridin-3-yl)benzo[d]thiazol-2-yl)acetamide]
IC50 (PI3K α): 3840 nM | IC50 (PI3K β): 17100 nM

CC(=O)Nc1nc2ccc(-c3ccnc(Sc4cc(C)ccc4C)n3)cc2s1 [Example 123, N-(6-(2-((2,5-dimethylphenyl)sulfanyl)-4-pyrimidinyl)-1,3-benzothiazol-2-yl)acetamide]
IC50 (PI3K α): 23.5 nM | IC50 (PI3K β): 537 nM

CCC(=O)Nc1nc2ccc(-c3ccnc(OCc4ccccc4)n3)cc2s1 [Example 57, N-(6-(2-(benzyloxy)-4-pyrimidinyl)-1,3-benzothiazol-2-yl)propanamide]
IC50 (PI3K α): 277 nM | IC50 (PI3K β): 8830 nM

CC(=O)Nc1nc2ccc(-c3ccnc(N(C)S(=O)(=O)c4cccc5cnccc45)n3)cc2s1 [Example 208, N-(6-(2-(N-methylisoquinoline-5-sulfonamido)pyrimidin-4-yl)benzo[d]thiazol-2-yl)acetamide]
IC50 (PI3K α): 462 nM | IC50 (PI3K β): 743 nM

COCCNc1nccc(-c2ccc3nc(N)sc3c2)n1 [Example 48, 6-(2-((2-methoxyethyl)amino)-4-pyrimidinyl)-1,3-benzothiazol-2-amine]
IC50 (PI3K α): 18100 nM | IC50 (PI3K β): > 40000 nM

COc1ccc(OC)c(Sc2nccc(-c3ccc4nc(NC(C)=O)sc4c3)n2)c1 [Example 158, N-(6-(2-((2,5-dimethoxyphenyl)sulfanyl)-4-pyrimidinyl)-1,3-benzothiazol-2-yl)acetamide]
IC50 (PI3K α): 831 nM | IC50 (PI3K β): 426 nM

CC(=O)Nc1nc2ccc(-c3ccnc(N(C)S(=O)(=O)c4ccsc4)n3)cc2s1 [Example 209, N-(6-(2-(N-methylthiophene-3-sulfonamido)pyrimidin-4-yl)benzo[d]thiazol-2-yl)acetamide]
IC50 (PI3K α): 185 nM | IC50 (PI3K β): 855 nM

CC(=O)Nc1nc2ccc(-c3cccc(S(=O)(=O)c4ccccc4)n3)cc2s1 [Example 65, N-(6-(6-(phenylsulfonyl)pyridin-2-yl)benzo[d]thiazol-2-yl)acetamide]
IC50 (PI3K α): 221 nM | IC50 (PI3K β): > 40000 nM

CC(=O)Nc1nc2ccc(-c3ccnc(Nc4ccccn4)n3)cc2s1 [Example 264, N-(6-(2-(pyridin-2-ylamino)pyrimidin-4-yl)benzo[d]thiazol-2-yl)acetamide]
IC50 (PI3K α): 2490 nM | IC50 (PI3K β): > 40000 nM

CC(=O)Nc1nc2ccc(-c3cncc(OCCN4CCOC4=O)c3)cc2s1 [Example 232, N-(6-(5-(2-(2-oxooxazolidin-3-yl)ethoxy)pyridin-3-yl)benzo[d]thiazol-2-yl)acetamide]
IC50 (PI3K α): 837 nM | IC50 (PI3K β): 7440 nM

CC(=O)Nc1nc2ccc(-c3ccnc(OCCN(C)C)n3)cc2s1 [Example 9]
IC50 (PI3K α): 6070 nM | IC50 (PI3K β): > 40000 nM

Nc1nc2ccc(-c3ccnc(NCCCc4ccccc4)n3)cc2s1 [Example 45, 6-(2-(3-Phenylpropylamino)pyrimidin-4-yl)benzo[d]thiazol-2-amine]
IC50 (PI3K α): 1970 nM | IC50 (PI3K β): 455 nM

CC(=O)Nc1nc2ccc(-c3ccnc(CCCc4ccccc4)n3)cc2s1 [Example 14, N-(6-(2-(3-phenylpropyl)-4-pyrimidinyl)-1,3-benzothiazol-2-yl)acetamide]
IC50 (PI3K α): 2750 nM | IC50 (PI3K β): 10700 nM

CC(=O)Nc1nc2ccc(-c3cccc(N(C)S(=O)(=O)c4ccccc4F)n3)cc2s1 [Example 226, N-(6-(6-(2-fluoro-N-methylphenylsulfonamido)pyridin-2-yl)benzo[d]thiazol-2-yl)acetamide]
IC50 (PI3K α): 161 nM | IC50 (PI3K β): 576 nM

CC(=O)c1cncc(-c2ccc3ncsc3c2)c1 [Example 336, 1-(5-(1,3-benzothiazol-6-yl)-3-pyridinyl)ethanone]
IC50 (PI3K α): 2550 nM | IC50 (PI3K β): 13300 nM

CC(=O)Nc1nc2ccc(-c3ccnc(Sc4ccc(Cl)cc4)n3)cc2s1 [Example 138, N-(6-(2-((4-chlorophenyl)sulfanyl)-4-pyrimidinyl)-1,3-benzothiazol-2-yl)acetamide]
IC50 (PI3K α): 69.9 nM | IC50 (PI3K β): 2880 nM

Cc1ccc(S(=O)(=O)Nc2nnc(-c3ccc4nc(N)sc4c3)o2)cc1 [Example 165, N-(5-(2-Aminobenzo[d]thiazol-6-yl)-1,3,4-oxadiazol-2-yl)-4-methylbenzenesulfonamide]
IC50 (PI3K α): 196 nM | IC50 (PI3K β): 170 nM

CC(=O)Nc1nc2ccc(-c3cnc(OC(F)F)cc3C)cc2s1 [Example 250, N-(6-(6-(difluoromethoxy)-4-methylpyridin-3-yl)benzo[d]thiazol-2-yl)acetamide]
IC50 (PI3K α): 11900 nM | IC50 (PI3K β): 27500 nM

COc1ccc(S(=O)(=O)Nc2cc(-c3ccc4nc(SC)sc4c3)cnc2Cl)cc1 [Example 327, N-(2-chloro-5-(2-(methylsulfanyl)-1,3-benzothiazol-6-yl)-3-pyridinyl)-4-methoxybenzenesulfonamide]
IC50 (PI3K α): 222 nM | IC50 (PI3K β): 384 nM

COc1cccc(-c2cccc3nc(NC(C)=O)sc23)c1 [Example 96, N-(7-(3-methoxyphenyl)-1,3-benzothiazol-2-yl)acetamide]
IC50 (PI3K α): 1680 nM | IC50 (PI3K β): > 40000 nM

CC(=O)Nc1nc2ccc(-c3cncc(OCCN4CCC(F)(F)C4=O)c3)cc2s1 [Example 254]
IC50 (PI3K α): 1180 nM | IC50 (PI3K β): 24100 nM

CC(C)(C)OC(=O)Nc1nc2ccc(-c3nnc(NCc4ccccc4)o3)cc2s1 [Example 169, tert-Butyl 6-(5-(benzylamino)-1,3,4-oxadiazol-2-yl)benzo[d]thiazol-2-ylcarbamate]
IC50 (PI3K α): 4240 nM | IC50 (PI3K β): 2690 nM

CC(=O)Nc1nc2ccc(-c3cncc(OCCN4CCCC4=O)c3)cc2s1 [Example 229, N-(6-(5-(2-(2-oxopyrrolidin-1-yl)ethoxy)pyridin-3-yl)benzo[d]thiazol-2-yl)acetamide]
IC50 (PI3K α): 1080 nM | IC50 (PI3K β): 15000 nM

CC(=O)Nc1nc2ccc(-c3ccnc(N(C)S(=O)(=O)c4ccc5ncccc5c4)n3)cc2s1 [Example 204, N-(6-(2-(N-methylquinoline-6-sulfonamido)pyrimidin-4-yl)benzo[d]thiazol-2-yl)acetamide]
IC50 (PI3K α): 354 nM | IC50 (PI3K β): 404 nM

CC(=O)Nc1nc2ccc(-c3cnccc3CO)cc2s1 [Example 251, N-(6-(4-(hydroxymethyl)pyridin-3-yl)benzo[d]thiazol-2-yl)acetamide]
IC50 (PI3K α): 1910 nM | IC50 (PI3K β): > 40000 nM

CC(=O)Nc1nc2ccc(-c3ccc(OC(F)F)nc3)cc2s1 [Example 249, N-(6-(6-(difluoromethoxy)pyridin-3-yl)benzo[d]thiazol-2-yl)acetamide]
IC50 (PI3K α): 717 nM | IC50 (PI3K β): 8110 nM

CC(C)(C)OC(=O)Nc1nc2ccc(-c3nnc(NS(=O)(=O)c4ccc(F)cc4)o3)cc2s1 [Example 167, tert-Butyl 6-(5-(4-fluorophenylsulfonamido)-1,3,4-oxadiazol-2-yl)benzo[d]thiazol-2-ylcarbamate]
IC50 (PI3K α): 663 nM | IC50 (PI3K β): 5800 nM

CC(=O)Nc1nc2ccc(-c3cncc(OCCN4CCC(F)C4=O)c3)cc2s1 (centres unmarked) [Example 255]
IC50 (PI3K α): 794 nM | IC50 (PI3K β): > 40000 nM

CC(=O)Nc1nc2ccc(-c3ccnc(SCc4ccccc4C)n3)cc2s1 [Example 37, N-(6-(2-((2-methylbenzyl)sulfanyl)-4-pyrimidinyl)-1,3-benzothiazol-2-yl)acetamide]
IC50 (PI3K α): 119 nM | IC50 (PI3K β): 4120 nM

CC(=O)Nc1nc2ccc(-c3cc(OC(C)C#N)cnc3Cl)cc2s1 (centres unmarked) [Example 291, N-(6-(2-chloro-5-(1-cyanoethoxy)pyridin-3-yl)benzo[d]thiazol-2-yl)acetamide]
IC50 (PI3K α): 983 nM | IC50 (PI3K β): 3790 nM

CC(=O)Nc1nc2ccc(-c3cncc(OCCN4CCC(C)C4=O)c3)cc2s1 (centres unmarked) [Example 253]
IC50 (PI3K α): 1540 nM | IC50 (PI3K β): 45600 nM

CC(=O)Nc1nc2ccc(-c3ccnc(Sc4ccc(C)c(C)c4)n3)cc2s1 [Example 128, N-(6-(2-((3,4-dimethylphenyl)sulfanyl)-4-pyrimidinyl)-1,3-benzothiazol-2-yl)acetamide]
IC50 (PI3K α): 33.9 nM | IC50 (PI3K β): 522 nM

CC(=O)Nc1nc2ccc(-c3ccnc(OCCCN4CCOC4=O)n3)cc2s1 [Example 32, N-(6-(2-(3-(2-oxo-1,3-oxazolidin-3-yl)propoxy)-4-pyrimidinyl)-1,3-benzothiazol-2-yl)acetamide]
IC50 (PI3K α): 601 nM | IC50 (PI3K β): > 40000 nM

Nc1nc2ccc(-c3nnc(NS(=O)(=O)c4ccc(F)cc4)o3)cc2s1 [Example 168, N-(5-(2-aminobenzo[d]thiazol-6-yl)-1,3,4-oxadiazol-2-yl)-4-fluorobenzenesulfonamide]
IC50 (PI3K α): 665 nM | IC50 (PI3K β): 816 nM

CC(=O)Nc1nc2ccc(-c3ccnc(N4CCCCC4)n3)cc2s1 [Example 263, N-(6-(2-(piperidin-1-yl)pyrimidin-4-yl)benzo[d]thiazol-2-yl)acetamide]
IC50 (PI3K α): 1940 nM | IC50 (PI3K β): > 40000 nM

CN(C)c1cc(-c2ccc3nc(NS(C)(=O)=O)sc3c2)cnc1Cl [Example 276, N-(6-(6-chloro-5-(dimethylamino)pyridin-3-yl)benzo[d]thiazol-2-yl)methanesulfonamide]
IC50 (PI3K α): 1720 nM | IC50 (PI3K β): 29900 nM

COc1ccc(S(=O)(=O)Nc2cc(-c3ccc4nc(NC(C)C)sc4c3)cnc2Cl)cc1 [Example 305, N-(2-chloro-5-(2-((1-methylethyl)amino)-1,3-benzothiazol-6-yl)-3-pyridinyl)-4-methoxybenzenesulfonamide]
IC50 (PI3K α): 58.9 nM | IC50 (PI3K β): 224 nM

CC(=O)Nc1nc2ccc(-c3nnc(NS(=O)(=O)c4ccc(F)cc4)o3)cc2s1 [Example 164, N-(6-(5-(4-Fluorophenylsulfonamido)-1,3,4-oxadiazol-2-yl)benzo[d]thiazol-2-yl)acetamide]
IC50 (PI3K α): 17.8 nM | IC50 (PI3K β): 322 nM

CC(=O)Nc1nc2ccc(-c3cncc(OCCN4CCOCC4)c3)cc2s1 [Example 230, N-(6-(5-(2-morpholinoethoxy)pyridin-3-yl)benzo[d]thiazol-2-yl)acetamide]
IC50 (PI3K α): 2790 nM | IC50 (PI3K β): 19300 nM

COc1ccc(S(=O)(=O)c2ncc(-c3ccc4nc(NC(C)=O)sc4c3)s2)cc1 [Example 61, N-(6-(2-(4-methoxyphenylsulfonyl)thiazol-5-yl)benzo[d]thiazol-2-yl)acetamide]
IC50 (PI3K α): 38800 nM | IC50 (PI3K β): 31000 nM
